These results are taken from paper PMC6478789, “A chemical toolbox for the study of bromodomains and epigenetic signaling” (Nature Communications, 2019).

One test concerns the target EP300 (Homo sapiens, UniProt Q09472). Briefly: Histone acetyltransferase (HAT) activity assay. It is filed as biochemical. The settings on record: read-out: HATs Activity (%).
The next test deals with T1, HAT1 (Homo sapiens, UniProt O14929).
T1 sequence (O14929 1-419): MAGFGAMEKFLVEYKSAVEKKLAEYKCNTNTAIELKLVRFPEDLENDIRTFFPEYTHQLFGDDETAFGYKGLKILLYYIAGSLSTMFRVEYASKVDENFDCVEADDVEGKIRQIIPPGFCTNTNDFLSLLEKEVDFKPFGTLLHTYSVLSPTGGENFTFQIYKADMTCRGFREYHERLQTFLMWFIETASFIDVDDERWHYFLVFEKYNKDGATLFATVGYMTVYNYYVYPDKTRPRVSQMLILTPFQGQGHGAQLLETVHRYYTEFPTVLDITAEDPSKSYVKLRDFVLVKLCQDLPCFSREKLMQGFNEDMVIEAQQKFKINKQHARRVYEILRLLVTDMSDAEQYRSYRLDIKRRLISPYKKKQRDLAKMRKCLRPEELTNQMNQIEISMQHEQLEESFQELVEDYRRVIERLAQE
Briefly: Histone acetyltransferase (HAT) activity assay. The settings on record: read-out: HATs Activity (%). It is filed as biochemical.

The target of a further test is T2, MYST1 (Homo sapiens, UniProt Q9H7Z6).
T2 sequence (Q9H7Z6 1-458): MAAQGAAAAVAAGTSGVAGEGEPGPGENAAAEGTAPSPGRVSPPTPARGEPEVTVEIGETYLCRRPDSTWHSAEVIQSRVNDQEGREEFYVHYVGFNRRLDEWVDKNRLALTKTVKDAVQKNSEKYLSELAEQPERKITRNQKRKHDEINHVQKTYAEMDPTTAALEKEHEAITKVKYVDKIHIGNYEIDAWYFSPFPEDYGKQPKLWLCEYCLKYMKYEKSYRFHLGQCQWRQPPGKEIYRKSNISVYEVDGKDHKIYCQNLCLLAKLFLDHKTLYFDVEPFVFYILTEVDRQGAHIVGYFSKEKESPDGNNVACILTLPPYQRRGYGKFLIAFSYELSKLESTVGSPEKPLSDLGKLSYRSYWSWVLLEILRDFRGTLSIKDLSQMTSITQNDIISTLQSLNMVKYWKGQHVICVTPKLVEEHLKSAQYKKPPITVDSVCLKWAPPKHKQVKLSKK
Put plainly: Histone acetyltransferase (HAT) activity assay. It is filed as biochemical. The settings on record: read-out: HATs Activity (%).

For the next test, the target named is MYST3 (Homo sapiens, UniProt Q92794). Briefly: Histone acetyltransferase (HAT) activity assay. It is filed as biochemical. The following applies: read-out: HATs Activity (%).
The next test has as its target GCN5L2 (Homo sapiens, UniProt Q92830). Briefly: Histone acetyltransferase (HAT) activity assay. It is filed as biochemical. The settings on record: read-out: HATs Activity (%).
In another test the test system is C2C12 myoblast cells. Put plainly: Gene-expression analysis (microarray). It is filed as cell-based, mouse. The settings on record: 12 h; 500 nM (JQ1, LP-99), 2 μM (GSK2801, BAZ2-ICR, BSP). The procedure: Total RNA was extracted using the PureLink^TM RNA mini kit (Thermo Fisher Scientific, 12183018A) as per the manufacturer’s protocol.
RNA samples were processed for oligonucleotide microarray profiling utilizing the Affymetrix Clariom^TM S Assay HT mouse. Quality controls were carried out in R (v.3.5.1) and Bioconductor[71] (v.3.7) using the arrayQualityMetrics package (v.3.36.0) taking into account array intensity distributions, distance between arrays, and variance mean dependence. Principal component analysis was used to decide which arrays to process together. After quality control, arrays were corrected for background, normalized, and log2-transformed together using the rma function of the oligo package (v.1.44)[73] in R/Bioconductor. Probes with small variance across samples were filtered out using the genefilter (v.1.62) package, employing the nsFilter function and an interquartile range cut-off of 0.28 (or >log(1.2), determined by the midpoint of the shortest interval containing half of the data). This reduced the number of probes of the Clariom^TM S array from 29,129 to 14,538.
Differential expression analysis was conducted using the limma package (v.3.36.2)[74], employing a linear model followed by empirical Bayesian analysis to determine differential expression between not-treated and treated samples.

The subject of the next test is ten TNBC cell lines. Put plainly: High-throughput screening of bromodomain inhibitors in TNBC panel (confluency). It is filed as cell-based, human. The following applies: 3 μM, 7 days. The procedure: Fig. 6 BRD inhibitors leverage metabolic adaptations induced by glucose transporter I (GLUT1) inhibition in TNBC. a BRD inhibitor screening across ten TNBC cell lines. Cells were treated with indicated BRD inhibitors at 3 μM for 7 days. Confluency was measured using an IncuCyte ZOOM live cell imaging device. Data shown are mean ± s.d. of n = 4 independent cell culture grown and treated cells. A two-sided Student’s t test was used to derive the p-values. b SLC2A1 gene expression in the The Cancer Genome Atlas (TCGA) breast datasets. The cohorts were divided into TNBCs (red) and non-TNBCs (blue) according to PAM50 classification. Gene expression is reported as median-centered expression log2 values. The number of patients (n) per group is indicated. P-values were determined using a Wilcoxon's rank-sum test. c Glucose uptake in MDA-MB-436 cells in response to BAY-876 treatment relative to vehicle. MDA-MB-436 cells were treated with dimethyl sulfoxide (DMSO) or 3 µM BAY-876 for 5 days. […]
TNBC cell lines were seeded in sterile, transparent 384-well plates at 500 cells per well in 50 µl media. […] Cell confluency at 7 days was evaluated using an Incucyte ZOOM live cell imaging device (Essen Bioscence) and analyzed with the Incucyte ZOOM (2016A) software based on phase contrast image.

Another test relates to three TNBC lines. Briefly: Combinatorial screen of BRD inhibitors with or without BAY-876 (confluency). It is filed as cell-based, human. The following applies: 3 μM probe + 3 μM BAY-876. The procedure:
Fig. 6 BRD inhibitors leverage metabolic adaptations induced by glucose transporter I (GLUT1) inhibition in TNBC. a BRD inhibitor screening across ten TNBC cell lines. Cells were treated with indicated BRD inhibitors at 3 μM for 7 days. Confluency was measured using an IncuCyte ZOOM live cell imaging device. Data shown are mean ± s.d. of n = 4 independent cell culture grown and treated cells. A two-sided Student’s t test was used to derive the p-values. b SLC2A1 gene expression in the The Cancer Genome Atlas (TCGA) breast datasets. The cohorts were divided into TNBCs (red) and non-TNBCs (blue) according to PAM50 classification. Gene expression is reported as median-centered expression log2 values. The number of patients (n) per group is indicated. P-values were determined using a Wilcoxon's rank-sum test. c Glucose uptake in MDA-MB-436 cells in response to BAY-876 treatment relative to vehicle. MDA-MB-436 cells were treated with dimethyl sulfoxide (DMSO) or 3 µM BAY-876 for 5 days. Graph indicates mean, error bars denote s.d. from three independent assays and p-value was computed using the Benjamini-Hochberg t test; ***p < 0.001. d Effects of BAY-876 treatment on the intracellular acetyl-CoA level. Graph indicates mean, error bars denote s.d. from three independent assays and p-value was computed using the Benjamini-Hochberg t test; ***p < 0.001. e Effects of BAY-876 treatment on intracellular NAD^+/NADH level. Graph indicates the mean, error bars denote s.d. from three independent assays and p-value computed using the Benjamini-Hochberg t test; **p < 0.01. f Immunoblot analysis of H3 and H4 acetylation in MDA-MB-436 cells before and after BAY-876 treatment. P-value computed using the Benjamini-Hochberg t test; ***p < 0.001. g Cell growth effects of BAY-876 treatment on three representative cell lines. n.s. not significant. h Combinatorial screening of BRD inhibitors with or without 3 μM BAY-876 across ten TNBC cell lines. Cell confluency was obtained from the endpoint Incucyte scanning. (Left) Heatmap of the combinatorial screening results; (Right) Cell confluency after treatment with three potential BRDi candidates at 3 μM in the presence or absence of 3 μM BAY-876 in three representative cell lines. Graph indicates mean, error bars denote s.d. from three independent assays and p-values were computed using the Benjamini-Hochberg t test; **p < 0.01; ***p < 0.001. Raw data images are available in Supplementary Fig. 4
TNBC cell lines were seeded in sterile, transparent 384-well plates at 500 cells per well in 50 µl media. Chemical probes were delivered in dimethyl sulfoxide (DMSO). Cell confluency at 7 days was evaluated using an Incucyte ZOOM live cell imaging device (Essen Bioscence) and analyzed with the Incucyte ZOOM (2016A) software based on phase contrast image.

Test [1] deals with BT-549 and MDA-MB436 cell lines. Put plainly: JQ1 dose-response with or without BAY-876. It is filed as cell-based, human. The following applies: with or without 3 μM BAY-876, 7 days.
Description: and error bars denote standard deviation from three independent assays. p value computed using a one-way ANOVA test; ****** p<0.001. e) The colony formation of indicated cells with 3μM indicated chemical probes treatment for 14 days. f) MDA-MB436 cells were treated with 3μM indicated chemical probes for 5 days. Cell apoptotic activity was quantified by the fluorescent caspase 3/7 active objects. Graph indicate mean and error bars denote standard deviation from four independent assays. p value computed using one-way ANOVA t test; ****
Graph indicate mean and error bars denote standard deviation from four independent assays. p value computed using a two- stage step-up Benjamini t test i) Dose dependent
Graph indicate mean and error bars denote standard deviation from four independent assay s. p value computed using a two - stage step -up Benjamini t test j) Immunoblot based quantification of H3K14ac abundance using total H3 as a control in MDA-MB-436 cells following control or 3 μM of the indicated chemical probes during a 5-day treatment. Graph indicate mean and error bars denote standard deviation from three independent assays. p value computed using a two-stage step-up Benjamini t test; **p<0.01; *** p<0.001. k) Immunoblot based quantification of H3K14ac abundance using total […]

Each structure is given as a SMILES string.

EP300, sequence (Q09472 whole entry, species assumed): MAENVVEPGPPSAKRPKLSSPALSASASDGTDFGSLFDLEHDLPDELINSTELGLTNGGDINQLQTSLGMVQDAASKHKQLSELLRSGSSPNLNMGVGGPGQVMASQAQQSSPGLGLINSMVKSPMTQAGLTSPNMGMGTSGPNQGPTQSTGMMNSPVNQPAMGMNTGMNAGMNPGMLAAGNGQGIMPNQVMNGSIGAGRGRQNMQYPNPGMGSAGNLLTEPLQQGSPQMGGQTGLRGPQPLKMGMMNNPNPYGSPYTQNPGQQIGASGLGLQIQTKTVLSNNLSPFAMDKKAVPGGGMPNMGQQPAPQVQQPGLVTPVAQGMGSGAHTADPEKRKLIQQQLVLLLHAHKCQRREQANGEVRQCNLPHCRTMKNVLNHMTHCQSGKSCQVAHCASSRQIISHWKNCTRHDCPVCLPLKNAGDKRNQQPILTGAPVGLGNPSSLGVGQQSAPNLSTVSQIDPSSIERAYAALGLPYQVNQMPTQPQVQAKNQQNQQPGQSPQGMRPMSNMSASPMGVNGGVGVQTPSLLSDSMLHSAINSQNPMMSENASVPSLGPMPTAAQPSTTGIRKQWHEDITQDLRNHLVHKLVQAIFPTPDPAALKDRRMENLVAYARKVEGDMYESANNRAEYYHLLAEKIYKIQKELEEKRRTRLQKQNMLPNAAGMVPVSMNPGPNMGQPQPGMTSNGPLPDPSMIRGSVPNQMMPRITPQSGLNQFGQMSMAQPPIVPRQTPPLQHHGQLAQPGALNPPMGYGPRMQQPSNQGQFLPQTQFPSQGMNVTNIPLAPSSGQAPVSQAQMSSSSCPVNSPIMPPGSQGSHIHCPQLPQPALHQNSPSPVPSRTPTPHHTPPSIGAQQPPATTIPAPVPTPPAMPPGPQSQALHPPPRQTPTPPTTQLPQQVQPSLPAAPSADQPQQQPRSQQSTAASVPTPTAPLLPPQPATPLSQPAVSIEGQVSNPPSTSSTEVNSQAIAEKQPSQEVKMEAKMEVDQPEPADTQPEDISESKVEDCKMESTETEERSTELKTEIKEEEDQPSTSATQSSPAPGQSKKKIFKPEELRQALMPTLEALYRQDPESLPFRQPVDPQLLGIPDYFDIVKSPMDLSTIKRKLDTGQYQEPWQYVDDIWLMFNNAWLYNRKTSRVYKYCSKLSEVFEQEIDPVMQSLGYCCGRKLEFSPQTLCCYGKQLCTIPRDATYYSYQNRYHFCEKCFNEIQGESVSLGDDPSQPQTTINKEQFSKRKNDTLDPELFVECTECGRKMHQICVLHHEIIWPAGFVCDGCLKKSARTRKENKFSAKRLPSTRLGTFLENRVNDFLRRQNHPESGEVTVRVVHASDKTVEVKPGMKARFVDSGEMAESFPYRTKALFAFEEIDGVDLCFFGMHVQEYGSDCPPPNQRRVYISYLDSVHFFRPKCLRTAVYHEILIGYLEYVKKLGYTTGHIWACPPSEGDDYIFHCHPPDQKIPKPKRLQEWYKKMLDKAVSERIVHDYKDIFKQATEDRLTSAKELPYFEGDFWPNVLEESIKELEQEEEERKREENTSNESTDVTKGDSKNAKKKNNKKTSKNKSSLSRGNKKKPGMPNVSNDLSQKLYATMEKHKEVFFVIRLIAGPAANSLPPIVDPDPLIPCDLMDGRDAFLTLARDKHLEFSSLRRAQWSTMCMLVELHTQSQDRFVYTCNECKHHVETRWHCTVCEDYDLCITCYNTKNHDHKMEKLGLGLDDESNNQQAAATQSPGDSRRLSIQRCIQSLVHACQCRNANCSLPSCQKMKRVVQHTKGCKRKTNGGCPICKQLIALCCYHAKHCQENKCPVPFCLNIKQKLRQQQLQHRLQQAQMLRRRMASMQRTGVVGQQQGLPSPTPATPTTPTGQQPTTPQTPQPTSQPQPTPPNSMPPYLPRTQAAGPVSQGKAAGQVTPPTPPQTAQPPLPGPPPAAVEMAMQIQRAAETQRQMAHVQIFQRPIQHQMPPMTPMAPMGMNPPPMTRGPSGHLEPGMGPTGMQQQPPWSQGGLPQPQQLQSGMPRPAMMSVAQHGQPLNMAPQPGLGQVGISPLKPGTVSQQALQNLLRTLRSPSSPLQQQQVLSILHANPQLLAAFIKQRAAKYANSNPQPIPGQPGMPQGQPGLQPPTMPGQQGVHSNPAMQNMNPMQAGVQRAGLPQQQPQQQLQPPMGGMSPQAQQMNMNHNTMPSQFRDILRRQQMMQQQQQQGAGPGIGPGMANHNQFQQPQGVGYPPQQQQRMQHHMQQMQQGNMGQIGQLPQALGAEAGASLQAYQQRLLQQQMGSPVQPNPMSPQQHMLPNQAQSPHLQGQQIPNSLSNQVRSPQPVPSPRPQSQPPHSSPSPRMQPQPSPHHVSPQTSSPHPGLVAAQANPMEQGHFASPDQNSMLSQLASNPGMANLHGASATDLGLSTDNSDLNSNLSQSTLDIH
MYST3, sequence (Q92794 whole entry, species assumed): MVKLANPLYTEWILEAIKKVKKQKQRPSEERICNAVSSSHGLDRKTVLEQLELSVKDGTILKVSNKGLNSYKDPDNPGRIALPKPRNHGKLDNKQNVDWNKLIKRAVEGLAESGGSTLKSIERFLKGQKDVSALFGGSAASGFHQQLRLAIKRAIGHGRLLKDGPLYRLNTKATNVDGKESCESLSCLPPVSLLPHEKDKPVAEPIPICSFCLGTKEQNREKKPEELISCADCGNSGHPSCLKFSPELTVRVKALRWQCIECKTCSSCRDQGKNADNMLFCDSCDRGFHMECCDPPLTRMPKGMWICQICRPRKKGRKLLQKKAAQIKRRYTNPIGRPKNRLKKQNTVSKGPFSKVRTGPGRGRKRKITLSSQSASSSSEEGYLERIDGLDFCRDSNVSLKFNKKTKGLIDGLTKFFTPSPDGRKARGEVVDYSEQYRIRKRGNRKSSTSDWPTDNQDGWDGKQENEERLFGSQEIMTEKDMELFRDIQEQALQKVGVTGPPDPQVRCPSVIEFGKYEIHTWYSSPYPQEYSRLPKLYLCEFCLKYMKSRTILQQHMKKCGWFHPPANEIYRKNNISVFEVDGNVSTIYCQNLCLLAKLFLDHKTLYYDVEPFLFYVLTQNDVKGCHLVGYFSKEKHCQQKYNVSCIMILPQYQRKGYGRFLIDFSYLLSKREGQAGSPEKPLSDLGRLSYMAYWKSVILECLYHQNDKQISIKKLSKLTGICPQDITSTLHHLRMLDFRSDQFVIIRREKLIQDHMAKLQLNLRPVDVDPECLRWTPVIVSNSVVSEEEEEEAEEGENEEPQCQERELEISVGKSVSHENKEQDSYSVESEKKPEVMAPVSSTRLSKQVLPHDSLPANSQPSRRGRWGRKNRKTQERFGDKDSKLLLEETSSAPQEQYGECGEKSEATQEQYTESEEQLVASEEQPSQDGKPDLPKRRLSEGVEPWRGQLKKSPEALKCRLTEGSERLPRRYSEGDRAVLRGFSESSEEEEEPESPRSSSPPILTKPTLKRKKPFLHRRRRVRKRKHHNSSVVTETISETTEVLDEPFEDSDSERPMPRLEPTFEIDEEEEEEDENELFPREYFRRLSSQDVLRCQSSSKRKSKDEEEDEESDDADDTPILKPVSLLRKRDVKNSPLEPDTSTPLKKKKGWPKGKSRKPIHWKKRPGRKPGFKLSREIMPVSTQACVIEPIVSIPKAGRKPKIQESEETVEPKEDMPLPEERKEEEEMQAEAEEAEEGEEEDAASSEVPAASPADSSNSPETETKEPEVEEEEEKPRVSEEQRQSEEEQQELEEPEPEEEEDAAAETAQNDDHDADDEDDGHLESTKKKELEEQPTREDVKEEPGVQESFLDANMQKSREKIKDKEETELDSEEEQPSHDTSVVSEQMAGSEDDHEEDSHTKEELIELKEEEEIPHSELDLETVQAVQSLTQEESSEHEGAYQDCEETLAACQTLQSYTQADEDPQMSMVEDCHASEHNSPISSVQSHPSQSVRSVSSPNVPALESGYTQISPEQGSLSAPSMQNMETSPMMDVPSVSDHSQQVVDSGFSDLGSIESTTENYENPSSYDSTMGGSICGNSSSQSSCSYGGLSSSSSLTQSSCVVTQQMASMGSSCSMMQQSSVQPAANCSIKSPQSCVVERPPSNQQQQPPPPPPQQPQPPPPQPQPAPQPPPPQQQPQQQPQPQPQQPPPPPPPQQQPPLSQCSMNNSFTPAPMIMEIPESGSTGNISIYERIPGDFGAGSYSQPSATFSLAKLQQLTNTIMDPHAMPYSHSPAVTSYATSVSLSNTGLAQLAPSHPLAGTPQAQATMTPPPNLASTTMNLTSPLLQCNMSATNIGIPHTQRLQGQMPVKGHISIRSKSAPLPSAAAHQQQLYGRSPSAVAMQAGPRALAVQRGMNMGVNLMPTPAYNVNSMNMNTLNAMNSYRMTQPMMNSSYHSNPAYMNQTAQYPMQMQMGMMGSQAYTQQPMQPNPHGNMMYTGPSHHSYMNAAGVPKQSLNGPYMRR

Consider `Cc1sc2c(c1C)C(c1ccc(Cl)cc1)=NC(CC(=O)OC(C)(C)C)c1nnc(C)n1-2` (centres unmarked) [JQ1], for which the activity at 1 µM came out at 99% at EP300; 98% at HAT1; 99% at MYST1; 108% at MYST3; 104% at GCN5L2. Further, the activity at 10 µM on EP300 was determined as 102%; on HAT1 it was 103%; at MYST1, 95%; on MYST3 it was 100%; at GCN5L2, 98%. The “changes in gene-expression levels” value in the test on C2C12 myoblast cells was “significant changes in gene-expression levels”. Also, in the test on ten TNBC cell lines, the “anti-proliferative effect (confluency)” value was “strong anti-proliferative effects”. Moreover, the “combination effect with BAY-876 across the three cell lines” value in the test on three TNBC lines is “efficacy in only one of the three tested TNBC lines”. Moreover, the “synergy with BAY-876” value in test [1] was “no significant synergistic effect”.
